Key:
[1] = target: T1, GABAA receptor α1β2γ2 (Homo sapiens, UniProt P14867+P18507); assay: Two-electrode voltage-clamp potentiation of GABA EC10 current in Xenopus oocytes, GABAA1; type: cell-based; settings: percentage potentiation of GABA EC10 current divided by that of diazepam
T1 construct: expressed in transfected cells; host or cells: Xenopus laevis oocytes injected with cRNA
Method in brief: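 Human GABAA receptors expressed in Xenopus oocytes by cRNA injection (α:β:γ molar ratio ~1:1:10 for α1β2γ2, 1:1:1 for α2β3γ2), recorded 2-10 days later by two-electrode voltage clamp at −60 mV in ND-96, pH 7.5. Modulator preapplied 30 s before GABA at per-oocyte EC10. Peak-current percent potentiation over GABA alone, normalised to diazepam.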

[2] = target: T2, GABAA2 receptors (α2, β3, γ2 receptor subunits transfected into Sf9 cells) (Homo sapiens, UniProt P18507+P47869); assay: GABAA2 Binding Method ([3H]-Flunitrazepam displacement); settings: [3H]-Flunitrazepam ~2 nM, α2β3γ2 Sf9 membranes, 1 hr at 4° C.
T2 construct: host or cells: Sf9 cells (membranes)
T2 sequence (P47869 29-451): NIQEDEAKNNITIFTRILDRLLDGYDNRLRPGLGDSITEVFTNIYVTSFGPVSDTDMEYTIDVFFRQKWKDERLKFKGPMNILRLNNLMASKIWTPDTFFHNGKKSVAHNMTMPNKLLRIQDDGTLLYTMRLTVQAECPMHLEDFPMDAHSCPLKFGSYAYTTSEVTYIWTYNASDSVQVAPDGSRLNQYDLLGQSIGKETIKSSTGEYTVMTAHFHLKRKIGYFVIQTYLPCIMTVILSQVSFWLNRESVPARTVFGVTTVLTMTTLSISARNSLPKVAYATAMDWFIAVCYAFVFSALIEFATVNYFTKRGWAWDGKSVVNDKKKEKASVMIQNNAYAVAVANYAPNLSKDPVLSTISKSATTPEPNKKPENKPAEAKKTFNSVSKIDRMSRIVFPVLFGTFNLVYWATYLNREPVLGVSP
T2 sequence (P28472 26-473 partner): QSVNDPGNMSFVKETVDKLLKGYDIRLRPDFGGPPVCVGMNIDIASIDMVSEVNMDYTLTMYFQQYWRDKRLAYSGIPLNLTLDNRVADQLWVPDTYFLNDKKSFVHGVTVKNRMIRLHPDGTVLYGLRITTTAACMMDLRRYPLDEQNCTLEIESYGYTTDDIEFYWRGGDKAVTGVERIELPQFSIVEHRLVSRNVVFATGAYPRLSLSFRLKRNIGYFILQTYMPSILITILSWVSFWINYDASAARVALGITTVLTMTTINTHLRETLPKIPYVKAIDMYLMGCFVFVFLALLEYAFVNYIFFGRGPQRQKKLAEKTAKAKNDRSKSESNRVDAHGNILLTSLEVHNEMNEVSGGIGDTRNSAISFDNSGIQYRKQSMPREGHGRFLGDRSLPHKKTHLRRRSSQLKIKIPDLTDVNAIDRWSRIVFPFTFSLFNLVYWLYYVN
T2 sequence (P18507 40-475): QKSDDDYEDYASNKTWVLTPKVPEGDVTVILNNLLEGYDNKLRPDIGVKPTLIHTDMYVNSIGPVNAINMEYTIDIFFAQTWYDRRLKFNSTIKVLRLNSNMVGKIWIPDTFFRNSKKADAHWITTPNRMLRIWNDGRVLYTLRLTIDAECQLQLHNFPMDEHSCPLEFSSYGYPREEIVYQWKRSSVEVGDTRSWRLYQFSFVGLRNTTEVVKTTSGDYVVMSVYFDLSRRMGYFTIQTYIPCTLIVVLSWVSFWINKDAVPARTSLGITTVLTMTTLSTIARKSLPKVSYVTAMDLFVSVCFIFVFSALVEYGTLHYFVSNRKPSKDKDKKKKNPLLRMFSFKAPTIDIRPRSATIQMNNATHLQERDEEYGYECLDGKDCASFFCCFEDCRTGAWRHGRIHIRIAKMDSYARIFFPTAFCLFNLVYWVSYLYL
Method in brief: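 Displacement of [3H]-flunitrazepam (~2 nM in assay) from recombinant human α2β3γ2 receptors in Sf9 membranes; 1 h incubation at 4 °C, harvest by filtration. Values reported as percent of control, IC50 and Ki.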

[3] = target: T3, GABAA receptor α2β3γ2 (Homo sapiens, UniProt P18507+P47869); assay: Two-electrode voltage-clamp potentiation of GABA EC10 current in Xenopus oocytes, GABAA2; type: cell-based; settings: percentage potentiation of GABA EC10 current divided by that of diazepam
T3 construct: expressed in transfected cells; host or cells: Xenopus laevis oocytes injected with cRNA
T3 sequence (P47869 29-451): as the sequence (P47869 29-451) above
T3 sequence (P28472 26-473 partner): as the sequence (P28472 26-473 partner) above
T3 sequence (P18507 40-475): as the sequence (P18507 40-475) above
Procedure: GABAA receptors were heterologously expressed in Xenopus oocytes by injecting cRNA corresponding to human α1, α2, α3, α5, β2, P3 and γ2 subunits of the GABAA receptor genes. The specific subunit combinations (subtypes) were as follows: α1β2γ2, α2β3γ2, α3β3γ2, and α5β3γ2. The EC10 of GABA is approximated for each cell. Stability of GABA-mediated (EC10) current is established. Modulatory effect of test compound is determined and compared across subtypes. […] Thus, the assay can characterize modulatory effects and determine subtype selectivity of test compounds on major subtypes of GABAA receptors.
Xenopus laevis frogs (Xenopus I, Kalamazoo, Mich.) were anesthetized using 0.15% tricaine. Surgically removed ovarian lobes were teased out in OR2 solution (82 NaCl, 2.5 KCl, 5 HEPES, 1.5 NaH2PO4, 1 MgCl2, 0.1 EDTA, in mM, pH 7.4). The oocytes were defolliculated by incubation in 25 mL OR2 containing 0.2% collagenase 1A (SIGMA) two times for about 60 minutes on a platform shaker and stored in Leibovitz's L-15 medium. Oocytes were injected the following day in 0.5× Leibovitz's L-15 medium containing […] gentamycin, 10 units/ml penicillin, and […] streptomycin.
Capped cRNAs from the linearized vectors containing human α1, β2 and γ2 subunits of the GABAA receptor genes were mixed in ratio of […]. Oocytes were injected with 25-50 nL of mixed RNA with an appx molar ratio for α1, β2, and γ2 as 1:1:10. Oocyte recordings were done 2-10 days after injection. The same methods apply to subtypes derived from α2β3γ2, α3β3γ2, and α5β3γ2, except for 1:1:1 ratio was used for α, β, and γ subunits.
All measurements were done in a medium containing ND-96 (96 NaCl, 2 KCl, 1.8 CaCl2.2H2O, 1 MgCl2.6H2O, 5 HEPES, in mM, pH 7.5). Two-electrode voltage-clamp recording was carried out using OpusXpress amplifier (Axon Instruments, Foster City, Calif.), which allows simultaneous recording from 8 oocytes. Oocytes were impaled with two electrodes of 1-2 MΩ tip resistance when filled with 3M KCl. Recordings were begun when membrane potential became stable at potentials negative to −50-−60 mV. Membrane potential was held at −60 mV. […] The concentration of GABA corresponded to the EC10 value calculated for each oocyte. The modulator pulses started 30 s before the GABA pulse so as to allow preincubation with the modulator. A set of 3 pulses with just GABA without modulator was given prior to the modulator-containing pulses to define the baseline GABA response. Two oocytes per each experiment were dedicated to observe the effect of diazepam on GABA response to ensure the presence of γ2 subunit in the GABAA pentameric complex, which imparts diazepam sensitivity to the complex.
Current amplitude (i) was measured from baseline to peak using Clampfit (Axon Inst., Foster City, Calif.). Potentiation was calculated as percent change from the baseline GABA current flux 100×(imod/icontrol)−1) where imod=current mediated by modulator+GABA and icontrol=current mediated by GABA alone. […] Similarly, a value of −50% potentiation means the presence of modulator caused a 50% decrease in the control current. Various other data shown here were fitted and plotted using GraphPad Prism (GraphPad Software, Inc. San Diego, Calif.). The percentage potentiation was converted to relative potentiation by dividing it with percentage potentiation value obtained from the same assay with diazepam as a control.

T1 sequence (P14867 28-456): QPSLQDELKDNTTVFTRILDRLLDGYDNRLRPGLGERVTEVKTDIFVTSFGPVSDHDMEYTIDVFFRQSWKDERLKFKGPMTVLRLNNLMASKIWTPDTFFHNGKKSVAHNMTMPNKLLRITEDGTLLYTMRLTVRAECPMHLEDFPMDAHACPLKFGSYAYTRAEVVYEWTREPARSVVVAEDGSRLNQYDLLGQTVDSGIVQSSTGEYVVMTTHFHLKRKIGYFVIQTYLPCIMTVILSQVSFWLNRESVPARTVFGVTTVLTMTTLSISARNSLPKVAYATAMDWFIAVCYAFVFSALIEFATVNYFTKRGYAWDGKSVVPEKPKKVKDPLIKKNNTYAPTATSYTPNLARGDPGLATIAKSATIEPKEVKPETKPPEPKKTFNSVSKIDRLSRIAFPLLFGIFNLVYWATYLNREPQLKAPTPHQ
T1 sequence (P47870 25-512 partner limits assumed): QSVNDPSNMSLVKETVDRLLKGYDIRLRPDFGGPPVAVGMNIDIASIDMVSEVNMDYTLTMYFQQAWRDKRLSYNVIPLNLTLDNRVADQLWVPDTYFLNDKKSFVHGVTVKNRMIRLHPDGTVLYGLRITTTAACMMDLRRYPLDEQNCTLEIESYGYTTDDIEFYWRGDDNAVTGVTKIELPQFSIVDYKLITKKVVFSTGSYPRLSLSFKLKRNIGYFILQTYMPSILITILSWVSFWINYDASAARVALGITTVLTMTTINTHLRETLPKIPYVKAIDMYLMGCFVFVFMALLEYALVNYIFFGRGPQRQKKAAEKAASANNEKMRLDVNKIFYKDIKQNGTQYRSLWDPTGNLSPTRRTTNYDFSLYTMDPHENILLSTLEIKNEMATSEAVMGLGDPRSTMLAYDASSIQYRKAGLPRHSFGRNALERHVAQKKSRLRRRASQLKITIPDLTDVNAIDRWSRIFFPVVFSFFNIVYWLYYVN
T1 sequence (P18507 40-475): as the sequence (P18507 40-475) above

Row | SMILES | Relative Potentiation for GABAA1 [1] | Ki [2] | Relative Potentiation for GABAA2 [3]
1 | Cc1cccc(-c2cccc3c(N)c4c(nc23)C(O)N(C2CCC2)C4=O)n1 (stereo not drawn) [9-Amino-2-cyclobutyl-3-hydroxy-5-(6-methylpyridin-2-yl)-2,3-dihydropyrrolo[3,4-b]quinolin-1-one] | −0.052 | 7.62 nM | 0.1
2 | Cc1nn(C)cc1-c1cccc2c(N)c3c(nc12)CN(C1CCC1)C3=O [9-Amino-2-cyclobutyl-5-(1,3-dimethyl-1H-pyrazol-4-yl)-2,3-dihydropyrrolo[3,4-b]quinolin-1-one] | 0.017 | 3.91 nM | 0.43
3 | Cn1cc(-c2cccc3c(N)c4c(nc23)CN(C2CCC2)C4=O)cn1 [9-Amino-2-cyclobutyl-5-(1-methyl-1H-pyrazol-4-yl)-2,3-dihydropyrrolo[3,4-b]quinolin-1-one] | 0.01 | 3.76 nM | 0.18
4 | COc1cccc(-c2cccc3c(N)c4c(nc23)CN(C2CCC2)C4=O)c1F [9-Amino-2-cyclobutyl-5-(2-fluoro-3-methoxyphenyl)-2,3-dihydropyrrolo[3,4-b]quinolin-1-one] | 0.062 | 4.19 nM | 0.26
5 | Cc1ccc(-c2cccc3c(N)c4c(nc23)CN(C2CCC2)C4=O)c(F)n1 [9-Amino-2-cyclobutyl-5-(2-fluoro-6-methylpyridin-3-yl)-2,3-dihydropyrrolo[3,4-b]quinolin-1-one] | −0.017 | 4.26 nM | 0.3
6 | Nc1c2c(nc3c(-c4ncccc4F)cccc13)CN(C1CCC1)C2=O [9-Amino-2-cyclobutyl-5-(3-fluoropyridin-2-yl)-2,3-dihydropyrrolo[3,4-b]quinolin-1-one] | 0.017 | 4.69 nM | 0.19
7 | COc1nnccc1-c1cccc2c(N)c3c(nc12)CN(C1CCC1)C3=O [9-Amino-2-cyclobutyl-5-(3-methoxypyridazin-4-yl)-2,3-dihydropyrrolo[3,4-b]quinolin-1-one] | 0.082 | 4.73 nM | 0.43
8 | COc1cc(F)ccc1-c1cccc2c(N)c3c(nc12)CN(C1CCC1)C3=O [9-Amino-2-cyclobutyl-5-(4-fluoro-2-methoxyphenyl)-2,3-dihydropyrrolo[3,4-b]quinolin-1-one] | 0.035 | 8.36 nM | 0.26
9 | COc1ccc(F)cc1-c1cccc2c(N)c3c(nc12)CN(C1CCC1)C3=O [9-Amino-2-cyclobutyl-5-(5-fluoro-2-methoxyphenyl)-2,3-dihydropyrrolo[3,4-b]quinolin-1-one] | 0.066 | 8.9 nM | 0.36
10 | COc1cc(-c2cccc3c(N)c4c(nc23)CN(C2CCC2)C4=O)c(F)cn1 [9-Amino-2-cyclobutyl-5-(5-fluoro-2-methoxypyridin-4-yl)-2,3-dihydropyrrolo[3,4-b]quinolin-1-one] | 0.065 | 6.7 nM | 0.33

These reach a lower Ki [2]. Values come first.

Row | Relative Potentiation for GABAA1 [1] | Ki [2] | Relative Potentiation for GABAA2 [3] | SMILES
11 | 0.087 | 3.35 nM | 0.47 | COc1cnc(OC)c(-c2cccc3c(N)c4c(nc23)CN(C2CCC2)C4=O)c1 [9-Amino-2-cyclobutyl-5-(2,5-dimethoxypyridin-3-yl)-2,3-dihydropyrrolo[3,4-b]quinolin-1-one]
12 | −0.002 | 2.56 nM | 0.24 | Nc1c2c(nc3c(-c4cccnc4F)cccc13)CN(C1CCC1)C2=O [9-Amino-2-cyclobutyl-5-(2-fluoropyridin-3-yl)-2,3-dihydropyrrolo[3,4-b]quinolin-1-one]
13 | −0.03 | 2.17 nM | 0.14 | Nc1c2c(nc3c(-c4nccnc4F)cccc13)CN(C1CCC1)C2=O [9-Amino-2-cyclobutyl-5-(3-fluoropyrazin-2-yl)-2,3-dihydropyrrolo[3,4-b]quinolin-1-one]
14 | 0.038 | 1.86 nM | 0.26 | COc1cncc(-c2cccc3c(N)c4c(nc23)CN(C2CCC2)C4=O)c1 [9-Amino-2-cyclobutyl-5-(5-methoxy-pyridin-3-yl)-2,3-dihydropyrrolo[3,4-b]quinolin-1-one]
15 | −0.023 | 1.43 nM | 0.13 | COc1cc(F)c(-c2cccc3c(N)c4c(nc23)CN(C2CCC2)C4=O)c(F)c1 [9-Amino-2-cyclobutyl-5-(2,6-difluoro-4-methoxyphenyl)-2,3-dihydropyrrolo[3,4-b]quinolin-1-one]
16 | 0.1 | 1.34 nM | 0.29 | COc1ccc(F)c(-c2cccc3c(N)c4c(nc23)CN(C2CCC2)C4=O)c1 [9-Amino-2-cyclobutyl-5-(2-fluoro-5-methoxyphenyl)-2,3-dihydropyrrolo[3,4-b]quinolin-1-one]
17 | 0.017 | 1.1 nM | 0.13 | Cc1ccncc1-c1cccc2c(N)c3c(nc12)CN(C1CCC1)C3=O [9-Amino-2-cyclobutyl-5-(4-methylpyridin-3-yl)-2,3-dihydropyrrolo[3,4-b]quinolin-1-one]
18 | 0.083 | 1 nM | 0.41 | COc1ccc(-c2c(F)ccc3c(N)c4c(nc23)CN(C2CCC2)C4=O)cc1OC [9-Amino-2-cyclobutyl-5-(3,4-dimethoxyphenyl)-6-fluoro-2,3-dihydropyrrolo[3,4-b]quinolin-1-one]
19 | 0.11 | 0.953 nM | 0.4 | COc1ncc(-c2c(F)ccc3c(N)c4c(nc23)CN(C2CCC2)C4=O)c(OC)n1 [9-Amino-2-cyclobutyl-5-(2,4-dimethoxypyrimidin-5-yl)-6-fluoro-2,3-dihydropyrrolo[3,4-b]quinolin-1-one]
20 | 0.033 | 0.732 nM | 0.21 | Nc1c2c(nc3c(-c4ccc(F)nc4F)cccc13)CN(C1CCC1)C2=O [9-Amino-2-cyclobutyl-5-(2,6-difluoropyridin-3-yl)-2,3-dihydropyrrolo[3,4-b]quinolin-1-one]
21 | 0.1 | 0.64 nM | 0.32 | COc1cnccc1-c1cccc2c(N)c3c(nc12)CN(C1CCC1)C3=O [9-Amino-2-cyclobutyl-5-(3-methoxypyridin-4-yl)-2,3-dihydropyrrolo[3,4-b]quinolin-1-one]
22 | 0.083 | 0.631 nM | 0.52 | COc1ncncc1-c1cccc2c(N)c3c(nc12)CN(C1CCC1)C3=O [9-Amino-2-cyclobutyl-5-(4-methoxy-pyrimidin-5-yl)-2,3-dihydropyrrolo[3,4-b]quinolin-1-one]

Reference: patent US20080318943A1, “Compounds and Uses Thereof - 848” (ASTRAZENECA AB, priority 2007, published 2008)
